Measurements taken from patent US11591326B2, “Inhibitors of protein arginine methyltransferase 5 (PRMT5), pharmaceutical products thereof, and methods thereof” (PHARMABLOCK SCIENCES (NANJING), INC., priority 2018, dated 2023).

Legend:
[1] = biological target: Human recombinant PRMT5 in complex with human recombinant MEP50 (Homo sapiens (Human), UniProt O14744); assay: PRMT5/MEP50 AlphaLISA enzyme inhibitory assay; assay type: biochemical; conditions: PRMT5/MEP50 25 nM, SAM 10 μM, Biotin-H4 peptide 30 nM
Text: Human recombinant PRMT5 in complex with human recombinant MEP50, co-expressed in an insect cell/baculovirus expression system was purchased from Reaction Biology (Malvern, Pa.). […] Anti-H4R3-Me AlphaLISA acceptor beads and Streptavidin labeled AlphaLISA donor beads were obtained from PerkinElmer (Waltham, Mass.). S-adenosylmethionine (SAM), Tween20, dimethylsulfoxide (DMSO), and Tris buffer were obtained from Sigma at the highest level of purity available.
General Procedure for PRMT5/MEP50 AlphaLISA Enzyme Inhibitory Assays: Assays were performed in the buffer consisting of 50 mM Tris, pH 8.5, 5 mM MgCl2, 50 mM NaCl with 0.01% Tween20 and 1 mM DTT added right before the assay. 2.5 μL of compound solution in the assay buffer with 4% DMSO and 5 μL of PRMT5/MRP50 complex/SAM mixture solution in the assay buffer which was pre-incubated for 30 minutes were added into a white low volume 384 well microtiter plate. This mixture solution was incubated for 15 minutes with gentle shaking at room temperature. Methyl transfer reaction was initiated by adding 2.5 μL of Biotin-H4 (1-21) peptide substrate solution in the assay buffer. Final concentrations of PRMT5/MEP50, SAM, Biotin-H4 peptide substrate, and DMSO were 25 nM, 10 μM, 30 nM, and 1%, respectively. The reaction was allowed to perform for 120 minutes in dark with gentle shaking at room temperature after which 5 μL of Anti-H4R3-Me AlphaLISA acceptor beads in detection buffer from the manufacturer was added into the reaction mixture followed by incubation for 60 minutes. 10 μL of Streptavidin labeled AlphaLISA donor beads in detection buffer was added into the mixture followed by 30 minute incubation. Final acceptor and donor beads concentrations were 10 μg/mL. Plates were read on an Envision multimode plate reader from PerkinElmer (Waltham Mass., USA) with an excitation wavelength of 680 nm and emission wavelength of 615 nm. IC50 values of inhibitors were obtained by fitting the fluorescence intensity vs inhibitor concentrations in a sigmoidal dose-response curve (variable slopes, four parameters) using Prism 7 (La Jolla, Calif.).

[2] = test system: Mantle Cell Lymphoma Z-138 cell; assay: Cell proliferation inhibition, Z-138 (CCK8); assay type: cell-based; conditions: Z-138, incubated 4 days
Text: (§1) Materials and Cell Lines: Z-138, U251, and MIA PaCa2 cells were purchased from ATCC (American Type Culture Collection, Manassas, Va.) and Chinese Academy of Science (Shanghai, China). Iscove's Modified Dulbecco's Medium (IMDM), Dulbecco's Modified Eagle Medium (DMEM), penicillin-streptomycin, heat inactivated fetal bovine serum (FBS), and horse serum was purchased from ThermoFisher, Waltham, Mass., USA. Corning 96- and 384-well cell culture plates were purchased from ThermoFisher, Waltham, Mass., USA. Cell-Titer Glo® was purchased from Promega Corporation, Madison, Wis., USA.
In order to evaluate the inhibitory ability of compounds synthesized on the proliferation of the Mantle Cell Lymphoma Z-138 cell, exponentially growing cells were seeded in the media of IMDM with 10% horse serum and 1% penicillin-streptomycin at a concentration of 30000 cells/ml in a 96-well plate with 100 ul per well and incubated overnight at 37° C., 5% CO2 incubator. Compounds were prepared as 10-point, 3-fold serial dilutions in DMSO, beginning at 6 mM. 1 μl of DMSO solutions from the compound stock plates were added to 99 ul of cell culture media (final top concentration of compound in the assay was 30 uM and the final concentration of DMSO was 0.5%). 100 μL of compound solutions in media were added to each well of Z-138 cell plates. After adding compound solutions, assay plates were incubated for 4 days at 37° C., 5% CO2. Cell viability was measured using the Cell Counting Kit-8 (CCK8) obtained from the Beyotime Biotehnology, Shanghai, China. 20 ul of CCK8 reagent was added to each well of the Z-138 assay plate which was incubated at 37° C. for 2 hours. O.D. at 450 nm was read with the FlexStation 3 microplate reader (Molecular Devices, Sunnyvale, Calif. 94089 USA). The concentrations of compounds inhibiting cell viability by 50% (IC50 values) were determined using a sigmoidal dose-response model (variable slopes, four parameters) in Prism 7 (La Jolla, Calif.).

Glioblastoma U-251 cell = assay: Cell proliferation inhibition, U-251 (CellTiter-Glo); assay type: cell-based; conditions: Homo sapiens, U-251, incubated for 12 days (read after 8 or 12 days)
Text: as §1
In order to evaluate the inhibitory ability of compounds synthesized on the proliferation of the Glioblastoma U-251 cell, exponentially growing cells were seeded in the cell culture media of DMEM with 10% FBS and 1% penicillin-streptomycin at a concentration of 10000 cells/ml in a 384-well plate with 20 ul per well and incubated overnight at 37° C., 5% CO2 incubator. Compounds were prepared as 10-point, 3-fold serial dilutions in DMSO, beginning at 6 mM. 1 μl of DMSO solutions from the compound stock plates were added to 99 ul of cell culture media (final top concentration of compound in the assay was 30 uM and the final concentration of DMSO was 0.5%). 20 μL of compound solutions in media were added to each well of U-251 cell plates. After adding compound solutions, assay plates were incubated for 12 days at 37° C., 5% CO2. During this incubation period, cell culture media with freshly dissolved testing compounds was changed every 4 days. After removing old media from cell plates, 40 ul of media with testing compounds dissolved, which were prepared by adding 1 ul of compound DMSO serial solutions to 199 ul of cell media, were added to the assay plates with the same layout as they were initially prepared. After 8 or 12 days, cell viability was measured using the CellTiter-Glo assay kit from Promega (Madison, Wis., USA) by quantitating the ATP present in the cell cultures. 20 μL of CellTiter-Glo reagent was added to each well of the cell plates. Luminescence was read after 10 minute of incubation with the Envision multiple plate reader from PerkinElmer (Waltham, Mass., USA). The concentrations of compounds inhibiting cell viability by 50% (IC50 values) were determined using a sigmoidal dose-response model (variable slopes, four parameters) in Prism 7 (La Jolla, Calif., USA).

[3] = test system: Pancreatic Carcinoma MIA PaCa-2 cell; assay: Cell proliferation inhibition, MIA PaCa-2 (CellTiter-Glo); assay type: cell-based; conditions: Homo sapiens, MIA PaCa-2, incubated for 12 days (read after 8 or 12 days), read-out: IC50 (μM) MIA PaCa2
Text: as §1
In order to evaluate the inhibitory ability of compounds synthesized on the proliferation of the Pancreatic Carcinoma MIA PaCa-2 cell, exponentially growing cells were seeded in the culture media of DMEM with 10% FBS, 2.5% horse serum, 1 mM of Sodium Pyruvate and 1% penicillin-streptomycin at a concentration of 2500 cells/ml in a 384-well plate with 20 ul per well and incubated overnight at 37° C., 5% CO2 incubator. Compounds were prepared as 10-point, 3-fold serial dilutions in DMSO, beginning at 6 mM. 1 μl of DMSO solutions from the compound stock plates were added to 99 ul of cell media (final top concentration of compound in the assay was 30 uM and the final concentration of DMSO was 0.5%). 20 μL of compound solutions in media were added to each well of MIA PaCa-2 cell plates. After adding compound solutions, assay plates were incubated for 12 days at 37° C., 5% CO2. During this incubation period, cell media was changed every 4 days. After removing old media from cell plates, 40 ul of media with testing compounds dissolved, which were prepared by adding 1 ul of compound DMSO serial solutions to 199 ul of cell media, were added to the assay plates with the same layout as they were initially prepared. After 8 or 12 days, cell viability was measured using the CellTiter-Glo assay kit from Promega (Madison, Wis., USA) by quantitating the ATP present in the cell cultures. 20 μL of CellTiter-Glo reagent was added to each well of the cell plates. Luminescence was read after 10 minute of incubation with the Envision multiple plate reader from PerkinElmer (Waltham, Mass., USA). The concentrations of compounds inhibiting cell viability by 50% (IC50 values) were determined using a sigmoidal dose-response model (variable slopes, four parameters) in Prism 7 (La Jolla, Calif., USA).

Sequence of Human recombinant PRMT5 in complex with human recombinant MEP50 (O14744 whole entry): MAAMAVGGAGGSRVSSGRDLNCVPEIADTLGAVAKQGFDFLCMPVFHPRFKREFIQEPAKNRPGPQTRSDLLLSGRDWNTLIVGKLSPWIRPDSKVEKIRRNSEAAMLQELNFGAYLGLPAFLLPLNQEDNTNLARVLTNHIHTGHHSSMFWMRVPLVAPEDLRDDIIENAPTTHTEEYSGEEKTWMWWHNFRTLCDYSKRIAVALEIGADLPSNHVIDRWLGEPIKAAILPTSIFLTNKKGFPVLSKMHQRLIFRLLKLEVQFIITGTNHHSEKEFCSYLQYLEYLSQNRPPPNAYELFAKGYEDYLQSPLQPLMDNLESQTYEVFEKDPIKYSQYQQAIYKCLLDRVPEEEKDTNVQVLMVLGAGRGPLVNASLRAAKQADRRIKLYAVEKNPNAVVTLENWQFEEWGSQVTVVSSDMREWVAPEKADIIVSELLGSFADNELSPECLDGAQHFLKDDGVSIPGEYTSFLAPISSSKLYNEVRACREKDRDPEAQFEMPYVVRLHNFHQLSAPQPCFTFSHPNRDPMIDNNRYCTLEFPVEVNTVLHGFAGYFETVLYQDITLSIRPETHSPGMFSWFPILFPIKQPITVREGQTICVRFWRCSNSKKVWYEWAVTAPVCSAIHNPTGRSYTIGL
Sequence of Human recombinant PRMT5 in complex with human recombinant MEP50 (Q9BQA1 whole entry partner): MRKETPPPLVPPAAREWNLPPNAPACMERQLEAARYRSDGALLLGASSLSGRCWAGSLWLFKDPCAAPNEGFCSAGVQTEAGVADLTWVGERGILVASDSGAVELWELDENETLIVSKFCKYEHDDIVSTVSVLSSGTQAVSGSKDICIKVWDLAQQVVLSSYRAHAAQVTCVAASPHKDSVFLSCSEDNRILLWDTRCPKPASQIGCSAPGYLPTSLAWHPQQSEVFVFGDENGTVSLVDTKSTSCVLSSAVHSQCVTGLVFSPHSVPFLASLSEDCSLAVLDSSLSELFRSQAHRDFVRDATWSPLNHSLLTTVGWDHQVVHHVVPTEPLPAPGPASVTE

IC50 [1] [nM] | SMILES | further results
8.4 | Cn1cc(Nc2ccc3c(c2)C(=O)N(C[C@H](O)CN2CCc4ccccc4C2)CCO3)cn1 [Compound 29a, (R)-4-(3-(3,4-dihydroisoquinolin-2(1H)-yl)-2-hydroxypropyl)-7-((1-methyl-1H-pyrazol-4-yl)amino)-3,4-dihydrobenzo[f][1,4]oxazepin-5(2H)-one] | IC50 ([2]; Homo sapiens, Z-138, 96 h): 0.073 µM; IC50 (Glioblastoma U-251 cell): 0.14 µM; IC50 [3]: 0.4 µM
57 | CC(=O)N1CCC(Nc2cc(F)c3c(c2)C(=O)N(C[C@H](O)CN2CCc4ccccc4C2)CCO3)CC1 [Compound 2a, (R)-7-((1-acetylpiperidin-4-yl)amino)-4-(3-(3,4-dihydroisoquinolin-2(1H)-yl)-2-hydroxypropyl)-9-fluoro-3,4-dihydrobenzo[f][1,4]oxazepin-5(2H)-one] | IC50 ([2]; Homo sapiens, Z-138, 96 h): 0.041 µM; IC50 [3]: 0.024 µM
 | O=C(NC[C@@H](O)CN1CCc2ccccc2C1)c1cc(NC2COC2)ncn1 [Compound C2, reference compound] | IC50 ([2]; Homo sapiens, Z-138, 96 h): 9.1 µM; IC50 (Glioblastoma U-251 cell): 28.3 µM; IC50 [3]: 12.1 µM
 | O=C(NC[C@H](O)CN1CCc2ccccc2C1)c1cc(NC2COC2)ncn1 [Compound C1, reference compound] | IC50 ([2]; Homo sapiens, Z-138, 96 h): 0.11 µM; IC50 ([2]; listed as Ref 1 (EPZ-015666a)): 0.16 µM; IC50 (Glioblastoma U-251 cell): 1.2 µM; IC50 [3]: 2 µM
97 | O=C1c2cc(NC3COC3)ccc2CCN1CC(O)CN1CCc2ccccc2C1 (stereo not drawn) [Compound 1, 2-(3-(3,4-dihydroisoquinolin-2(1H)-yl)-2-hydroxypropyl)-7-(oxetan-3-ylamino)-3,4-dihydroisoquinolin-1(2H)-one] | 
248 | CC(=O)N1CCC(Nc2cc3c(cc2F)OCCN(C[C@H](O)CN2CCc4ccccc4C2)C3=O)CC1 [Compound 17a, (R)-7-((1-acetylpiperidin-4-yl)amino)-4-(3-(3,4-dihydroisoquinolin-2(1H)-yl)-2-hydroxypropyl)-8-fluoro-3,4-dihydrobenzo[f][1,4]oxazepin-5(2H)-one] | 
303 | O=c1c2cc(NC3COC3)ccc2ccn1CC(O)CN1CCc2ccccc2C1 (stereo not drawn) [Compound 4, 2-(3-(3,4-dihydroisoquinolin-2(1H)-yl)-2-hydroxypropyl)-7-(oxetan-3-ylamino)isoquinolin-1(2H)-one] | 
6.1 | O=C1c2cc(Nc3ccnnc3)ccc2C2(CC2)CN1CC(O)CN1CCc2ccccc2C1 (stereo not drawn) [Compound 35, 2′-(3-(3,4-dihydroisoquinolin-2(1H)-yl)-2-hydroxypropyl)-7′-(pyridazin-4-ylamino)-2′,3′-dihydro-1′H-spiro[cyclopropane-1,4′-isoquinolin]-1′-one] | 
2220 | O=C1c2cc(NC3CCOCC3)cnc2CCN1CC(O)CN1CCc2ccccc2C1 (stereo not drawn) [Compound 18, 6-(3-(3,4-dihydroisoquinolin-2(1H)-yl)-2-hydroxypropyl)-3-((tetrahydro-2H-pyran-4-yl)amino)-7,8-dihydro-1,6-naphthyridin-5(6H)-one] | 
6.5 | O=C1c2cc(Nc3ccnnc3)cc(F)c2OCCN1CC(O)CN1CCc2ccccc2C1 (stereo not drawn) [Compound 51, 4-(3-(3,4-dihydroisoquinolin-2(1H)-yl)-2-hydroxypropyl)-9-fluoro-7-(pyridazin-4-ylamino)-3,4-dihydrobenzo[f][1,4]oxazepin-5(2H)-one] | 
235 | Cn1cc(Nc2ccc3c(c2)C(=O)N(C[C@@H](O)CN2CCc4ccccc4C2)CC3)cn1 [Compound 12b, (S)-2-(3-(3,4-dihydroisoquinolin-2(1H)-yl)-2-hydroxypropyl)-7-((1-methyl-1H-pyrazol-4-yl)amino)-3,4-dihydroisoquinolin-1(2H)-one] | 
138 | CC(=O)N1CCC(Nc2ccc3c(c2F)C(=O)N(CC(O)CN2CCc4ccccc4C2)CCO3)CC1 (stereo not drawn) [Compound 46, 7-((1-acetylpiperidin-4-yl)amino)-4-(3-(3,4-dihydroisoquinolin-2(1H)-yl)-2-hydroxypropyl)-6-fluoro-3,4-dihydrobenzo[f][1,4]oxazepin-5(2H)-one] | 
21 | O=C1c2cc(Nc3cnn(C4COC4)c3)ccc2CCN1CC(O)CN1CCc2ccccc2C1 (stereo not drawn) [Compound 22, 2-(3-(3,4-dihydroisoquinolin-2(1H)-yl)-2-hydroxypropyl)-7-((1-(oxetan-3-yl)-1H-pyrazol-4-yl)amino)-3,4-dihydroisoquinolin-1(2H)-one] | 

SMILES | IC50 [1] [nM] | further results
CC(=O)N1C2CCC1CC(Nc1ccc3c(c1)C(=O)N(CC(O)CN1CCc4ccccc4C1)CCO3)C2 (stereo not drawn) [Compound 55, 7-((8-acetyl-8-azabicyclo[3.2.1]octan-3-yl)amino)-4-(3-(3,4-dihydroisoquinolin-2(1H)-yl)-2-hydroxypropyl)-3,4-dihydrobenzo[f][1,4]oxazepin-5(2H)-one] | 195 | 
